# Experimental data as given in patent EP4745145A1, “SALT OF THIAZOLOPYRAZINE COMPOUND OR CRYSTAL THEREOF AND USE THEREOF” (Simcere Zaiming Pharmaceutical Co., Ltd., priority 2023, dated 2025).
# Test system: hepatocytes
# Assay: Metabolic stability in hepatocytes
# Format: in vitro ADME
# Details: hepatocytes of various species
# Method: The metabolic stability of the compounds of the present disclosure in hepatocytes was determined by the following test method.
# • 1. Human hepatocytes (Biopredic BQHPCH10), cynomolgus monkey hepatocytes (RILD HP-SXH-02M), Beagle dog hepatocytes (BioIVT M00205), SD rat hepatocytes (BioIVT M00005), and CD-1 mouse hepatocytes (BioIVT M00505) • 2. AOPI stain (Nexcelom 200710-01-01) • 3. Dexamethasone (NIFDC 100129-201506) • 4. DPBS (10×) (Gibco by Life Technologies 2060570) • 5. Fetal bovine serum (FBS) (Corning 35081001) • 6. GlutaMAXTM-1 (100×) (Gibco by Life Technologies 2186980) • 7. HEPES (Sigma RNBJ1276) • 8. Human recombinant insulin (Gibco by Life Technologies 2090407) • 9. Isotonic Percoll (GE Healthcare 10288259) • 10. Verapamil (Sigma MKBV4993V) • 11. Williams' Medium E (Sigma RNBJ3314) • 12. […]
# All data were calculated by Microsoft Excel software. The peak area was detected through an extracted ion chromatogram. The in vitro half-life (t1/2) of the compound was determined by performing linear fitting of the natural logarithm of elimination percent of the compound and time.
# In vitro half-life (t1/2) was calculated by the slope: in vitro t1/2 = 0.693/k [formula]
# The in vitro intrinsic clearance (unit: µL/min/mg protein) was calculated using the following formula: in vitro CLint = k × volume of incubation (μL)/amount of proteins (mg) [formula] […]
structure (smiles),measurement,value
"COc1ccc(Cl)cc1-c1cc(C)ncc1C(=O)Nc1nc2ncc(-c3ccc(C#N)cc3)nc2s1 [Compound of formula I, 4-(5-chloro-2-methoxyphenyl)-N-[6-(4-cyanophenyl)thiazolo[4,5-b]pyrazin-2-yl]-6-methylnicotinamide]",metabolic stability in hepatocytes,metabolically stable
